Test results: ChEMBL document CHEMBL1129561 (J Med Chem, 1996); call rule not given here

Legend:
[1] = target: T1, Progesterone receptor (Homo sapiens) (UniProt P06401); details: CV-1
T1 sequence (whole entry): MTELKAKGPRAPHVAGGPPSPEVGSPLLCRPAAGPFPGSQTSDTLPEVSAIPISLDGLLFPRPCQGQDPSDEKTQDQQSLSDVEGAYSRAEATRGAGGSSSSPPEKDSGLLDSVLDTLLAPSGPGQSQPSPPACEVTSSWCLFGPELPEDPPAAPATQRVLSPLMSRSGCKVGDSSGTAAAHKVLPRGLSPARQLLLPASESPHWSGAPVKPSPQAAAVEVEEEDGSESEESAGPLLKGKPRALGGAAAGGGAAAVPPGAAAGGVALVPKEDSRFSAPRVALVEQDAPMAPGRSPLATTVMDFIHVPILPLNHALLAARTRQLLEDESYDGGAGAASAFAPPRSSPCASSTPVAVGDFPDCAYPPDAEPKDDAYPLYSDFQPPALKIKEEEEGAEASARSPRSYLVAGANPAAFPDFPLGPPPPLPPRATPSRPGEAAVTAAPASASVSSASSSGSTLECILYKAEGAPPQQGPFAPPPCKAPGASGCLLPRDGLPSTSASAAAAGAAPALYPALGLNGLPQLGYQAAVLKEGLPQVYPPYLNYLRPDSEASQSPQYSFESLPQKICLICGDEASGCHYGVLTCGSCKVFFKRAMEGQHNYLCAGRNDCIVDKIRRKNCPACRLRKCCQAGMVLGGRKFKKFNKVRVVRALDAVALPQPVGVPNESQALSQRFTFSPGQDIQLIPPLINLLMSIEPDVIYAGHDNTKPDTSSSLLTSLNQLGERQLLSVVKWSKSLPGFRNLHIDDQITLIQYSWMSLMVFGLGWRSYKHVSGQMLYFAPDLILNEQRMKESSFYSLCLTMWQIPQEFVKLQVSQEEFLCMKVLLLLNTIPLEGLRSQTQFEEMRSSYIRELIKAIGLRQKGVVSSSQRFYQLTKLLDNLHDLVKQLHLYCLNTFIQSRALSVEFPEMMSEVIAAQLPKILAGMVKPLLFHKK

[2] = target: T2, Androgen receptor (Homo sapiens, UniProt P10275)
T2 sequence (P10275 whole entry): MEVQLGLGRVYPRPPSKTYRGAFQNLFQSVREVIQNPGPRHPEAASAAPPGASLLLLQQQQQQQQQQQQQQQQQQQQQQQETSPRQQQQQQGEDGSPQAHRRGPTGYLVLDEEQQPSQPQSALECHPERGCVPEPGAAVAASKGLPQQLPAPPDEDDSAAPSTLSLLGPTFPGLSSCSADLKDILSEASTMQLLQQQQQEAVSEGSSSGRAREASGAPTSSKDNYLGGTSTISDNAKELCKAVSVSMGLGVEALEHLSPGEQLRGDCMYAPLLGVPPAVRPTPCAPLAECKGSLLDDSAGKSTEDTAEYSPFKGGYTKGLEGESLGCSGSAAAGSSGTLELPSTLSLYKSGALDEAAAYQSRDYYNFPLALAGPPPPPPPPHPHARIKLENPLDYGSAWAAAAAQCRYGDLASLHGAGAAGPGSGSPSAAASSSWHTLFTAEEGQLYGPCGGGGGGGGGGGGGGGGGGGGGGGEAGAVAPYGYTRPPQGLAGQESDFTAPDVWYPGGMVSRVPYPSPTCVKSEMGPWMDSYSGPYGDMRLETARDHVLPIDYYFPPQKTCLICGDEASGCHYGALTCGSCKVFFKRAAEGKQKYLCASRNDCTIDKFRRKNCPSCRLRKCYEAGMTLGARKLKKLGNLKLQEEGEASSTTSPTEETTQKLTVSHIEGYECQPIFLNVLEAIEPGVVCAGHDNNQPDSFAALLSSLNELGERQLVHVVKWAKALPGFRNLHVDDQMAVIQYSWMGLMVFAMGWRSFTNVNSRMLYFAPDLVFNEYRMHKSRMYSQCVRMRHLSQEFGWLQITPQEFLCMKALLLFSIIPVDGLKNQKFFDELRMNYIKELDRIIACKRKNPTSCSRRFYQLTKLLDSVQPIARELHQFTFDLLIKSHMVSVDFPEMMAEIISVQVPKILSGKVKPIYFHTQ
Description: Binding affinity determined against human Androgen receptor

[3] = target: T3, Glucocorticoid receptor (Homo sapiens, UniProt P04150)
T3 sequence (P04150 whole entry): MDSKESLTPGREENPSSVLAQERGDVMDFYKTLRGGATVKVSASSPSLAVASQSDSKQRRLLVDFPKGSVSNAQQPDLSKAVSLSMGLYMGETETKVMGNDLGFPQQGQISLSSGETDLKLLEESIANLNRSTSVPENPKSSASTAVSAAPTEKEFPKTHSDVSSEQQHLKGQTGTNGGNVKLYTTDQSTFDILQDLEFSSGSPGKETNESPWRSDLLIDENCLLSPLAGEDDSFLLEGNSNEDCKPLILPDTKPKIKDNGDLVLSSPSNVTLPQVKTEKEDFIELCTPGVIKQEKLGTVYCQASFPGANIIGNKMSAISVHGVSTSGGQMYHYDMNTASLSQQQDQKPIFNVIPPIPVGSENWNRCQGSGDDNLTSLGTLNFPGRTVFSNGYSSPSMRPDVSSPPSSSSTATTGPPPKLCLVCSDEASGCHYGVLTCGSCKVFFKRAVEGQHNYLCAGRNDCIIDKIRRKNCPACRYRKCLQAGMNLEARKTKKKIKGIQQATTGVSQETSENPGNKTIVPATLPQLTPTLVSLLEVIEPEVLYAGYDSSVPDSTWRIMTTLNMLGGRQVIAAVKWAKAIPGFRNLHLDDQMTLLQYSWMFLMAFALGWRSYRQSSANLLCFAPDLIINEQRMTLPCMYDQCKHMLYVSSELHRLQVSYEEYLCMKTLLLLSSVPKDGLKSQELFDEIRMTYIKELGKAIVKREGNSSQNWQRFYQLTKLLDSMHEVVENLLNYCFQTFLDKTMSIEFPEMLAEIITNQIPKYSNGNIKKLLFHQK
Description: Binding affinity was determined for human glucocorticoid receptor(hGR).

[4] = target: T4, Progesterone receptor (Homo sapiens, UniProt P06401)
T4 sequence (P06401 whole entry): T1 sequence (whole entry)

[5] = target: T4, Progesterone receptor; remark: listed apart in the source
[6] = target: T4, Progesterone receptor; remark: listed apart in the source
[7] = target: T4, Progesterone receptor; remark: listed apart in the source

| Compound | Max inhibition [1] [%] | Ki [2] | Ki [3] | Ki [4] | IC50 [5] [µM] | IC50 [6] [µM] | EC50 [7] [µM] |
| --- | --- | --- | --- | --- | --- | --- | --- |
| C=C1C=C(C)CC(C)(C)C1(O)Cc1ccc([N+](=O)[O-])cc1 (stereo unspecified) | 87 | 6.45 µM | 8.51 µM |  |  |  |  |
| C=C1CCC(C)(C)C1Cc1cc(OC)c(Br)cc1O (stereo unspecified) | 98 | 1.92 µM | 4.53 µM | 0.441 µM | 0.25 | 1.2 |  |
| COc1cc(CC2C(C)(C)CC(C)=CC23CC3)c(OC(C)=O)cc1Br (stereo unspecified) | 26 | 3.01 µM | 2.57 µM | 0.098 µM | 0.44 | 0.16 | 2.12 |
| C=C1[C@H](O)CCC(C)(C)[C@@H]1Cc1cc(OC)c(Br)cc1O | 73 | 10 µM (not active) | > 10 µM | 10 µM (not active) | 1.7 | 3.4 |  |
| C=C1C[C@H](C)C[C@@H](C)[C@@H]1Cc1cc(OC)c(Br)cc1O | 63 | 1.14 µM | 1.66 µM | 0.084 µM | 0.35 | 0.985 |  |
| C=C1C=CCC(C)(C)C1Cc1cc(OC)c(Br)cc1O (stereo unspecified) | 71 | 1.52 µM | 2.78 µM | 0.156 µM | 0.28 | 0.783 |  |
| C=C1[C@@H](Cc2cc(OC)c(Br)cc2O)C(C)(C)CC[C@@]1(C)O | 78 | 6.66 µM | > 10 µM | 0.275 µM | 0.43 | 2 |  |
| C=C1C=C(C)C[C@@H](C)[C@@H]1Cc1cc(OC)c(Br)cc1OC(C)=O | 52 | 1.5 µM | 2.38 µM | 0.021 µM | 0.147 | 0.35 | 3.01 |
| C=C1C=C(C)C(Cc2cc(OC)c(Br)cc2O)C(C)(C)C1 (stereo unspecified) | 66 | 1.59 µM | 2.67 µM |  |  |  |  |
| C=C1CCCC(C)(C)C1Cc1cc(OC)c(Br)cc1O (stereo unspecified) | 55 |  | 2.21 µM | 0.077 µM | 0.163 | 0.405 | 4.02 |
| C=C1C=C(C)CC(C)(C)C1Cc1ccc([N+](=O)[O-])c(C)c1 (stereo unspecified) | 85 | 2.7 µM | 6.81 µM | 0.0288 µM | 0.51 | 1.8 |  |
| C=C1C=C(C)CC(C)(C)C1Sc1ccc([N+](=O)[O-])cc1 (stereo unspecified) | 44 | > 10 µM | 8.21 µM |  |  |  |  |
| C=C1C=C(C)CC(C)(C)C1Cc1cc(OC)c(Br)cc1OC(C)=O (stereo unspecified) | 42 | 1.94 µM | 2.2 µM | 0.0596 µM | 0.77 | 0.71 | 1.46 |
| C=C1CCC[C@@H](C)[C@@H]1Cc1cc(OC)c(Br)cc1O | 62 | 0.57 µM | 2.29 µM | 0.069 µM | 0.2 | 0.32 | 3.01 |
| C=C1C=C(C)CC(C)(C)C1Cc1ccc2nonc2c1 (stereo unspecified) | 72 | > 10 µM | 8.36 µM | 0.088 µM | 0.775 | 1.95 |  |
| C=C1CCCC(C)(C)[C@@H]1Cc1cc(OC)c(Br)cc1O | 45 |  | 1.78 µM | 0.034 µM | 0.29 | 0.597 | 3.26 |
| C=C1CCC[C@H](C)[C@H]1Cc1cc(OC)c(Br)cc1O | 93 | 1.64 µM | 3.7 µM | 0.071 µM | 0.3 | 1.05 |  |
| CCOC1=CC(=O)C(Cc2ccc([N+](=O)[O-])cc2)C(C)(C)C1 (stereo unspecified) | 93 | 10 µM (not active) | 10 µM (not active) | > 10 µM |  | 2.44 |  |
| C=C1C=C(C)CC(C)(C)C1Cc1cc(OC)c(Br)cc1O (stereo unspecified) | 37 | 1.45 µM | 1.26 µM |  |  |  |  |
| C=C1C(C)=CCC(C)(C)[C@@H]1Cc1cc(OC)c(Br)cc1OC(C)=O | 83 | 6.39 µM | 4.11 µM | 0.455 µM | 0.21 | 0.66 |  |
